Measured values taken from ChEMBL document CHEMBL4339194 (J Med Chem, 2019).

Key:
Catenin beta-1 = molecular target: T1, Catenin beta-1 (Homo sapiens, UniProt P35222)
T1 sequence (P35222 whole entry): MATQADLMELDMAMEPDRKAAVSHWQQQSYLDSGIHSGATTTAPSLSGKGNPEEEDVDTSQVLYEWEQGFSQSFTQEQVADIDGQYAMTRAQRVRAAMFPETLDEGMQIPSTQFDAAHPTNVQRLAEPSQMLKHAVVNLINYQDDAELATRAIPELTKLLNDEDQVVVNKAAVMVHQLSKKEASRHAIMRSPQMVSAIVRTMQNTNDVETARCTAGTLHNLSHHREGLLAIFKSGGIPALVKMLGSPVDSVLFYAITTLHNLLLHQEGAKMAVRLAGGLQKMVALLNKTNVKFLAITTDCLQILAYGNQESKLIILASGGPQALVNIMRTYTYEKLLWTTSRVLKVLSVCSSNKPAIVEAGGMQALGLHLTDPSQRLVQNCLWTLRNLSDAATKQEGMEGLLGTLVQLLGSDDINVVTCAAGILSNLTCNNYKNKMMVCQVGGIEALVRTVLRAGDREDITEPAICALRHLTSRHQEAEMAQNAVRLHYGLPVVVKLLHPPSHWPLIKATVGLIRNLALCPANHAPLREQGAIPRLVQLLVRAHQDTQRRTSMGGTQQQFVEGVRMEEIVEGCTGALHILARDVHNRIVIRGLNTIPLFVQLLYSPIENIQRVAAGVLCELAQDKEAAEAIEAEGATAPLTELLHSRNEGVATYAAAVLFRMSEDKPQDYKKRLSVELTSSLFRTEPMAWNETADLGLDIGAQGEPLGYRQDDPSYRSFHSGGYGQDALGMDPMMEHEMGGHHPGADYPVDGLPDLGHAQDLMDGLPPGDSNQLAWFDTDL

[1] = Prodrug conversion in human SW480 cells assessed as (S)-4-((S)-2-((S)-2-(5-Chloro-1H-indole-2-carboxamido)-3-(naphthalen-2-yl)propanamido)-3-(2H-tetrazol-5-yl)propanamido)-5-oxo-5-((4-(trifluoromethoxy)phenyl)amino)pentanoic Acid formation at 25 uM measured after 24 hrs by HPLC-MS analysis; type: ADME, cell-based; conditions: sw480, 24 h
[2] = Drug uptake in human SW480 cells assessed as cell-bound level per million cells at 25 uM measured after 3 hrs by HPLC-MS analysis; type: ADME, cell-based; conditions: sw480, 3 h
SW480 = experiment: Cytotoxicity against human SW480 cells assessed as reduction in cell viability measured after 72 hrs by MTS assay; type: functional, cell-based; conditions: SW480, 72 h
A549 = experiment: Cytotoxicity against human A549 cells assessed as reduction in cell viability measured after 72 hrs by MTS assay; type: functional, cell-based; conditions: A549, 72 h
HCT-116 = experiment: Cytotoxicity against human HCT116 cells assessed as reduction in cell viability measured after 72 hrs by MTS assay; type: functional, cell-based; conditions: HCT-116, 72 h
MDA-MB-468 = experiment: Cytotoxicity against human MDA-MB-468 cells assessed as reduction in cell viability measured after 72 hrs by MTS assay; type: functional, cell-based; conditions: MDA-MB-468, 72 h
MDA-MB-231 = experiment: Cytotoxicity against human MDA-MB-231 cells assessed as reduction in cell viability measured after 72 hrs by MTS assay; type: functional, cell-based; conditions: MDA-MB-231, 72 h
BT-20 = experiment: Cytotoxicity against human BT20 cells assessed as reduction in cell viability measured after 72 hrs by MTS assay; type: functional, cell-based; conditions: BT-20, 72 h

SMILES | IC50 (Catenin beta-1) [µM] | Ki (Catenin beta-1) [µM] | also measured
COC(=O)[C@H](CCC(=O)O)NC(=O)[C@H](CC(=O)O)NC(=O)[C@H](Cc1ccc2ccccc2c1)NC(=O)Cc1nc2cc(Cl)ccc2[nH]1 | > 400 | > 100 | –
COC(=O)[C@H](CCC(=O)O)NC(=O)[C@H](CC(=O)O)NC(=O)[C@H](Cc1ccc2ccccc2c1)NC(=O)Cc1nc2ccc(Cl)cc2o1 | > 400 | > 100 | –
COC(=O)[C@H](CCC(=O)O)NC(=O)[C@H](CC(=O)O)NC(=O)[C@H](Cc1ccc2ccccc2c1)NC(=O)c1cc2cc(C)ccc2[nH]1 | > 400 | > 100 | –
COC(=O)[C@H](CCC(=O)O)NC(=O)[C@H](CC(=O)O)NC(=O)[C@H](Cc1ccc2ccccc2c1)NC(=O)c1cc2cc(OC)ccc2[nH]1 | > 400 | > 100 | –
COC(=O)[C@H](CCC(=O)O)NC(=O)[C@H](CC(=O)O)NC(=O)[C@H](Cc1ccc2ccccc2c1)NC(=O)Cc1nc2cc(Cl)ccc2s1 | > 400 | > 100 | –
COC(=O)[C@H](CCC(=O)O)NC(=O)[C@H](CC(=O)O)NC(=O)[C@H](Cc1ccc2ccccc2c1)NC(=O)c1cc2ccc(Cl)cc2[nH]1 | 60 | 15 | –
CCOC(=O)CC[C@H](NC(=O)[C@H](Cc1nn[nH]n1)NC(=O)[C@H](Cc1ccc2ccccc2c1)NC(=O)c1cc2cc(Cl)ccc2[nH]1)C(=O)Nc1ccc(OC(F)(F)F)cc1 | – | – | Drug metabolism [1]: Metabolite_Notdetected; Drug uptake [2]: 1.4 nmol/million cells; IC50 (SW480): 17.7 µM; IC50 (A549): 67.9 µM; IC50 (HCT-116): 60.6 µM; IC50 (MDA-MB-468): 10.6 µM; IC50 (MDA-MB-231): 16.6 µM
COC(=O)[C@H](CCC(=O)O)NC(=O)[C@H](CC(=O)O)NC(=O)[C@H](Cc1ccc2ccccc2c1)NC(=O)Cc1nc2ccc(Cl)cc2s1 | 88 | 22 | –
COC(=O)[C@H](CCC(=O)O)NC(=O)[C@H](CC(=O)O)NC(=O)[C@H](Cc1ccc2ccccc2c1)NC(=O)Cc1nc2cc(Cl)ccc2o1 | > 400 | > 100 | –
COC(=O)[C@H](CCC(=O)O)NC(=O)[C@H](CC(=O)O)NC(=O)[C@H](Cc1ccc2ccccc2c1)NC(=O)Cc1c[nH]c2ccc(Cl)cc12 | > 400 | > 100 | –
CCOC(=O)CC[C@H](NC(=O)[C@H](CC(=O)OCC)NC(=O)[C@H](Cc1ccc2ccccc2c1)NC(=O)c1cc2cc(OC)ccc2[nH]1)C(=O)OC | > 400 | > 100 | IC50 (BT-20): > 200 µM; IC50 (SW480): > 200 µM; IC50 (A549): > 200 µM; IC50 (HCT-116): > 200 µM; IC50 (MDA-MB-468): > 200 µM; IC50 (MDA-MB-231): > 200 µM
NC(=O)CC[C@H](NC(=O)[C@H](Cc1nn[nH]n1)NC(=O)[C@H](Cc1ccc2ccccc2c1)NC(=O)c1cc2cc(Cl)ccc2[nH]1)C(=O)Nc1ccc(OC(F)(F)F)cc1 | – | – | IC50 (BT-20): 29.3 µM; IC50 (SW480): 24.6 µM; IC50 (A549): 47.5 µM; IC50 (HCT-116): 57.8 µM; IC50 (MDA-MB-468): 26.9 µM; IC50 (MDA-MB-231): 29.3 µM
COC(=O)[C@H](CCC(=O)O)NC(=O)[C@H](CC(=O)O)NC(=O)[C@H](Cc1ccc2ccccc2c1)NC(=O)Cc1c[nH]c2cc(Cl)ccc12 | > 400 | > 100 | –
